# How the values were obtained:
# Assay in all cases: kinome screen (33PanQinase)
# Assay type in all cases: biochemical
# [1] = target: T1, CDK13/CycK (Homo sapiens, UniProt Q14004)
# T1 construct: purchased Reaction Biology Europe GmbH (formerly ProQinase)
# Description: (§1) The Kinome Screening was performed by Reaction Biology Europe GmbH (http://reactionbiology.com; Freiburg i. Br., Germany).
# [2] = target: T2, CDK20/CycT1 (Homo sapiens, UniProt Q8IZL9)
# T2 construct: purchased Reaction Biology Europe GmbH (formerly ProQinase)
# Description: as §1
# [3] = target: T3, CDK8/CycC (Homo sapiens, UniProt P49336)
# T3 construct: purchased Reaction Biology Europe GmbH (formerly ProQinase)
# Description: as §1
# [4] = target: T4, FER (Homo sapiens, UniProt P16591)
# T4 construct: purchased Reaction Biology Europe GmbH (formerly ProQinase)
# Description: as §1
# [5] = target: T5, FGFR2 (Homo sapiens, UniProt P21802)
# T5 construct: purchased Reaction Biology Europe GmbH (formerly ProQinase)
# Description: as §1
# [6] = target: T6, FRK (Homo sapiens, UniProt P42685)
# T6 construct: purchased Reaction Biology Europe GmbH (formerly ProQinase)
# Description: as §1
# [7] = target: T7, HIPK2 (Homo sapiens, UniProt Q9H2X6)
# T7 construct: purchased Reaction Biology Europe GmbH (formerly ProQinase)
# Description: as §1
# [8] = target: T8, MAP4K2 (Homo sapiens, UniProt Q12851)
# T8 construct: purchased Reaction Biology Europe GmbH (formerly ProQinase)
# T8 sequence (Q12851 1-820): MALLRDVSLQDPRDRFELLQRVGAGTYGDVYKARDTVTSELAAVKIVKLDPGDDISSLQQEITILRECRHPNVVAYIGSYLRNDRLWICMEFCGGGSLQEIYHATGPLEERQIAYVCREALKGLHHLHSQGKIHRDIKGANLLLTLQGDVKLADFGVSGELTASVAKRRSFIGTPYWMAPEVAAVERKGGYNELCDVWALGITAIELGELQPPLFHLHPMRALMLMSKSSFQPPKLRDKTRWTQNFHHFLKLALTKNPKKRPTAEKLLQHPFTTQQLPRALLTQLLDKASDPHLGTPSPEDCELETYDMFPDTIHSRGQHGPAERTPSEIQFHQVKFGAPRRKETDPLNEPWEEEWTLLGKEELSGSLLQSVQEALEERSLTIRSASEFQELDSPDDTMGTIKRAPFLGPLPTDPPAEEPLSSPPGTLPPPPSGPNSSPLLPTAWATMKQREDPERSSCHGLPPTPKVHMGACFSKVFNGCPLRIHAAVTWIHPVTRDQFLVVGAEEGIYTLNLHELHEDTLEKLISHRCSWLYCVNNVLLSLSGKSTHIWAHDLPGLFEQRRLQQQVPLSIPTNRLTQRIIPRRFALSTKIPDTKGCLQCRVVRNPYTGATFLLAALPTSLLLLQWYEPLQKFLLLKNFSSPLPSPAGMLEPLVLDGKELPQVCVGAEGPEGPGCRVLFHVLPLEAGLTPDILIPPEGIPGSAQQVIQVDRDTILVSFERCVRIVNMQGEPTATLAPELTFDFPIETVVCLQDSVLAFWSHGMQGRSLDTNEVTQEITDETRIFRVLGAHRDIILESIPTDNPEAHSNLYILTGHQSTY
# Description: as §1
# [9] = target: T9, PKMzeta (Homo sapiens, UniProt Q05513)
# T9 construct: PKMzeta; purchased Reaction Biology Europe GmbH (formerly ProQinase)
# T9 sequence (Q05513 184-592 limits assumed): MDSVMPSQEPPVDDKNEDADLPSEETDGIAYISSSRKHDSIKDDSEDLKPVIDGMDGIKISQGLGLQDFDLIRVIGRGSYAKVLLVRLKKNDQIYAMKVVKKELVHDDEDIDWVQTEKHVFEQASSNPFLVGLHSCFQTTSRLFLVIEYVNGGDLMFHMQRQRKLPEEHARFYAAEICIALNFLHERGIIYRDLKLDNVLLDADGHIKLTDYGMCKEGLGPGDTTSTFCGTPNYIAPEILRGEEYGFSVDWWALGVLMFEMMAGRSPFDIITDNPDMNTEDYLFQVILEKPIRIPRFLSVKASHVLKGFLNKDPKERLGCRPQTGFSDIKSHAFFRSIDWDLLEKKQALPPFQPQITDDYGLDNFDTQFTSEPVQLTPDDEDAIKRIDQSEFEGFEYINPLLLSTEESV
# Description: as §1
# [10] = target: T10, PRKG2 (Homo sapiens, UniProt Q13237)
# T10 construct: purchased Reaction Biology Europe GmbH (formerly ProQinase)
# T10 sequence (Q13237 1-762): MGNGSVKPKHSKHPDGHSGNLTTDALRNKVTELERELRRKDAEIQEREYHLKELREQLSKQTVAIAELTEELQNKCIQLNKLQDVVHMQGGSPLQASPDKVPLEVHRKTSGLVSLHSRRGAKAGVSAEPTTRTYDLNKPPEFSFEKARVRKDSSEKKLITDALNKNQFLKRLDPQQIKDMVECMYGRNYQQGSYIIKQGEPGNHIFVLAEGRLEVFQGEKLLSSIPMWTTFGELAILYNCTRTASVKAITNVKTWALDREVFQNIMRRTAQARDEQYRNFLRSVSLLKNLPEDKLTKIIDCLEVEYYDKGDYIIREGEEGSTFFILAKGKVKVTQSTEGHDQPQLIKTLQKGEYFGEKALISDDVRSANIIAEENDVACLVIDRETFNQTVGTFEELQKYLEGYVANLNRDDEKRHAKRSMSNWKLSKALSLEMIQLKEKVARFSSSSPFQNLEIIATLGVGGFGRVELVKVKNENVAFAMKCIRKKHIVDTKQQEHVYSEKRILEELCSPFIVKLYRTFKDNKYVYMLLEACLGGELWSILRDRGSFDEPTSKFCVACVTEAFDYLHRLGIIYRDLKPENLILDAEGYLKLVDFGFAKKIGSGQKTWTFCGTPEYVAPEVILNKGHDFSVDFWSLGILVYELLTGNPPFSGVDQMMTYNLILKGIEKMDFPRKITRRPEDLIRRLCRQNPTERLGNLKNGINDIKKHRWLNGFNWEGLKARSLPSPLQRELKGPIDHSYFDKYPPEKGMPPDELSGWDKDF
# Description: as §1
# [11] = target: T11, S6K (Homo sapiens, UniProt P23443)
# T11 construct: purchased Reaction Biology Europe GmbH (formerly ProQinase)
# Description: as §1
# [12] = target: T12, TTBK2 (Homo sapiens, UniProt Q6IQ55)
# T12 construct: purchased Reaction Biology Europe GmbH (formerly ProQinase)
# Description: as §1
# [13] = target: T13, p38α (Homo sapiens, UniProt Q16539)
# T13 construct: purchased Reaction Biology Europe GmbH (formerly ProQinase)
# Description: as §1
# T7 sequence (Q9H2X6 whole entry): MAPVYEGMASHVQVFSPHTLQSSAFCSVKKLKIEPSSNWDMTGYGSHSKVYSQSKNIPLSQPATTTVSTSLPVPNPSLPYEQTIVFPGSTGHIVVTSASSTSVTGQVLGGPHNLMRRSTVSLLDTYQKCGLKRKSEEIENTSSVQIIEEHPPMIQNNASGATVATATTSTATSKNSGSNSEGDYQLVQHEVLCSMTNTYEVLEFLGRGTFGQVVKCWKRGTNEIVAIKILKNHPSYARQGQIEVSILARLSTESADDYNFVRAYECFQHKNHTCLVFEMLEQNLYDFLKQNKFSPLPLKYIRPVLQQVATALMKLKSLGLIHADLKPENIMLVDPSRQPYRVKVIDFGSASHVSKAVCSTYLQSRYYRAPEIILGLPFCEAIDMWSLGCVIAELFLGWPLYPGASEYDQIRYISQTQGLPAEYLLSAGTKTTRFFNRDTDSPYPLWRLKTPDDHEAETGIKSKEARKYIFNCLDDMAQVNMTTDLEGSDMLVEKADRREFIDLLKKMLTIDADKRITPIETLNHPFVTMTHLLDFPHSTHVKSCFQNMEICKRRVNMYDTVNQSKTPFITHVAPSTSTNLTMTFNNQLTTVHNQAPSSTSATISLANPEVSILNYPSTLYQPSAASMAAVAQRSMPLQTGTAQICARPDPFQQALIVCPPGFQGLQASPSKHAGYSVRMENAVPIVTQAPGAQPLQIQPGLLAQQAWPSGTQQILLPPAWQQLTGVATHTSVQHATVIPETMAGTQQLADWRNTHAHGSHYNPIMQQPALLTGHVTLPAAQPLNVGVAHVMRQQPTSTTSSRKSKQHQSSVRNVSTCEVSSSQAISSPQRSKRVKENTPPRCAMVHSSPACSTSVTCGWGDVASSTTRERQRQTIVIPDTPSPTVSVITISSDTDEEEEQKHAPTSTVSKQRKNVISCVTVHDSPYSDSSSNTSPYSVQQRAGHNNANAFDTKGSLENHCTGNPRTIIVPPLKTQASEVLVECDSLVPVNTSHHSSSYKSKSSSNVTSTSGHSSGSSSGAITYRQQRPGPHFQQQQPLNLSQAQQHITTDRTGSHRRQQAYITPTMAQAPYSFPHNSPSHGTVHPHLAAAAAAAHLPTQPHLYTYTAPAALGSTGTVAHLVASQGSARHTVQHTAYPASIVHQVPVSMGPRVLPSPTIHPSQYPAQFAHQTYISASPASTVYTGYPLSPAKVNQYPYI
# T3 sequence (P49336 whole entry): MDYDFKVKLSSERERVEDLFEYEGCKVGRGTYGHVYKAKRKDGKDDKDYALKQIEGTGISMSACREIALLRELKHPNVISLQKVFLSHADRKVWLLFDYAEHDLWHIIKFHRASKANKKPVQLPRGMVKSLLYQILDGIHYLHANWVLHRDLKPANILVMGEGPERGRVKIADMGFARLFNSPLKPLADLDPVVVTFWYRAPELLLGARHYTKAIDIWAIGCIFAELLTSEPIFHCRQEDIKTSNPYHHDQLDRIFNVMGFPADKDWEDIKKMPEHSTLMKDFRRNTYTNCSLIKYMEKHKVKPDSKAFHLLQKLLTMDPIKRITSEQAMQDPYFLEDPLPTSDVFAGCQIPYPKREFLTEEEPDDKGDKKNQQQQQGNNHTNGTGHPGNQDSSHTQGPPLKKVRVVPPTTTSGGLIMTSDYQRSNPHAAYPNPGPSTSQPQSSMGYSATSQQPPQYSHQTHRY
# T3 sequence (P24863 whole entry partner): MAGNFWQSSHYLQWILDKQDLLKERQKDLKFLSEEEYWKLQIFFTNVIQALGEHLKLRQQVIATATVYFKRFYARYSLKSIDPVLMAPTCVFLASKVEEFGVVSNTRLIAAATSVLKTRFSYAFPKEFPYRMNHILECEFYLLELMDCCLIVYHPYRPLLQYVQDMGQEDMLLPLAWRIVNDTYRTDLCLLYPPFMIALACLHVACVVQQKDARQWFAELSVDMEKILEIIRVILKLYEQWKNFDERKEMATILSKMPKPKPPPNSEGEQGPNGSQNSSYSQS
# T4 sequence (P16591 whole entry): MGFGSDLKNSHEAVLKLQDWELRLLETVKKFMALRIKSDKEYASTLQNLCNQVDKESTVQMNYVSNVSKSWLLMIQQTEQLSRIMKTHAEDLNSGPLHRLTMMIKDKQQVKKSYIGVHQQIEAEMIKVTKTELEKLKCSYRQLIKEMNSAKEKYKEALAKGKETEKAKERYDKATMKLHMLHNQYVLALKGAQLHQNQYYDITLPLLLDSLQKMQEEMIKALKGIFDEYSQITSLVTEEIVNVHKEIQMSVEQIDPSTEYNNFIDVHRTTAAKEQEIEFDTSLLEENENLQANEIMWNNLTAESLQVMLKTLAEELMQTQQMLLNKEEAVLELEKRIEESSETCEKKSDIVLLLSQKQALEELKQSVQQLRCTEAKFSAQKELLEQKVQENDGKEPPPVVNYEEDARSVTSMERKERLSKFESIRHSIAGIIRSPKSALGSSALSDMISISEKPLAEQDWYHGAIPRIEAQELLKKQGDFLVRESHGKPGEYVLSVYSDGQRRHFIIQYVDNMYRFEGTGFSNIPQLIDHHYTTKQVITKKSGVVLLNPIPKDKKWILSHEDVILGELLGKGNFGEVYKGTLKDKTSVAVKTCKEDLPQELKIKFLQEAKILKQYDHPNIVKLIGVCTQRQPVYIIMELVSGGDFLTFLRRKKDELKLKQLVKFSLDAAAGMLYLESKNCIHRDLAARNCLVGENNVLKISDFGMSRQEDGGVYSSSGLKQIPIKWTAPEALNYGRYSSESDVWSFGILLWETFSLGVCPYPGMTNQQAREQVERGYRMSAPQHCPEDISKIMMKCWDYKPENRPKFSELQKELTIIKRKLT
# T13 sequence (Q16539 whole entry): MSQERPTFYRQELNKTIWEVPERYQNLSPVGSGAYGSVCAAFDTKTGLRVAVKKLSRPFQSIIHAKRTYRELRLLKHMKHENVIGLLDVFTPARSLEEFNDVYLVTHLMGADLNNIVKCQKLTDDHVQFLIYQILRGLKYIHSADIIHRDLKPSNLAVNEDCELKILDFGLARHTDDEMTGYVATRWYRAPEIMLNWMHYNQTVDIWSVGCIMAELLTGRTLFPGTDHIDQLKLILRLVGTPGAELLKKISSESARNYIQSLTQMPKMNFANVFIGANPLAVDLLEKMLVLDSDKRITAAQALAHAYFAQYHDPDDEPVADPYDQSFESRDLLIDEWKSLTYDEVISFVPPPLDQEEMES
# T5 sequence (P21802 22-821): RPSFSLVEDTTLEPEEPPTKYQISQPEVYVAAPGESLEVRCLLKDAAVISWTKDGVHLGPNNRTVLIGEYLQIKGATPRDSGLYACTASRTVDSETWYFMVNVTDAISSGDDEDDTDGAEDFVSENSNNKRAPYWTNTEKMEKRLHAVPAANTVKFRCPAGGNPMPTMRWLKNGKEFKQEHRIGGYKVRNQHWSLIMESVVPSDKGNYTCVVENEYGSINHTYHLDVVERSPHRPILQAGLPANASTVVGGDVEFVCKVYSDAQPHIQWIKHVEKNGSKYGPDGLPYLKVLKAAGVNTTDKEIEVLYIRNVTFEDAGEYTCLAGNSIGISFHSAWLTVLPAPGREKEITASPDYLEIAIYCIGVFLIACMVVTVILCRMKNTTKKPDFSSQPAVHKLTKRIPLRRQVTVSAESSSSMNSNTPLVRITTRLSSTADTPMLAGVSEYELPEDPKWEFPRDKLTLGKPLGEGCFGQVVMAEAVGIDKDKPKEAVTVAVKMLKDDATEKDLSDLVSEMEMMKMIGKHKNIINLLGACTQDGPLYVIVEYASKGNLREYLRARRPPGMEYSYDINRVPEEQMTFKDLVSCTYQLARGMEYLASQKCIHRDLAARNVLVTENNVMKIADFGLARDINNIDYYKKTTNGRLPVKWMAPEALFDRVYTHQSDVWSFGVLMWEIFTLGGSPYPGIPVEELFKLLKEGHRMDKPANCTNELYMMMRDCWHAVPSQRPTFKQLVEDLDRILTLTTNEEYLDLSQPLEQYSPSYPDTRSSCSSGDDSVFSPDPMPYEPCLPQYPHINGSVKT
# T2 sequence (Q8IZL9 whole entry): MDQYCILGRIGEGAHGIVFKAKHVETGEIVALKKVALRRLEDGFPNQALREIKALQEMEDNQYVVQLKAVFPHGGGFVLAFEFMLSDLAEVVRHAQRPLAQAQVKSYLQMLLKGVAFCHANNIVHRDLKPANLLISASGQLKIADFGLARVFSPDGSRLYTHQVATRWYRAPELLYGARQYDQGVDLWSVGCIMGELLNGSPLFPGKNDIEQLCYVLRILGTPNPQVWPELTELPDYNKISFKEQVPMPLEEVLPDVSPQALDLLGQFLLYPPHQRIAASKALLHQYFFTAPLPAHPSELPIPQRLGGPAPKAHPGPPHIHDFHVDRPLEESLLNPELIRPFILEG
# T2 sequence (O60563 whole entry partner): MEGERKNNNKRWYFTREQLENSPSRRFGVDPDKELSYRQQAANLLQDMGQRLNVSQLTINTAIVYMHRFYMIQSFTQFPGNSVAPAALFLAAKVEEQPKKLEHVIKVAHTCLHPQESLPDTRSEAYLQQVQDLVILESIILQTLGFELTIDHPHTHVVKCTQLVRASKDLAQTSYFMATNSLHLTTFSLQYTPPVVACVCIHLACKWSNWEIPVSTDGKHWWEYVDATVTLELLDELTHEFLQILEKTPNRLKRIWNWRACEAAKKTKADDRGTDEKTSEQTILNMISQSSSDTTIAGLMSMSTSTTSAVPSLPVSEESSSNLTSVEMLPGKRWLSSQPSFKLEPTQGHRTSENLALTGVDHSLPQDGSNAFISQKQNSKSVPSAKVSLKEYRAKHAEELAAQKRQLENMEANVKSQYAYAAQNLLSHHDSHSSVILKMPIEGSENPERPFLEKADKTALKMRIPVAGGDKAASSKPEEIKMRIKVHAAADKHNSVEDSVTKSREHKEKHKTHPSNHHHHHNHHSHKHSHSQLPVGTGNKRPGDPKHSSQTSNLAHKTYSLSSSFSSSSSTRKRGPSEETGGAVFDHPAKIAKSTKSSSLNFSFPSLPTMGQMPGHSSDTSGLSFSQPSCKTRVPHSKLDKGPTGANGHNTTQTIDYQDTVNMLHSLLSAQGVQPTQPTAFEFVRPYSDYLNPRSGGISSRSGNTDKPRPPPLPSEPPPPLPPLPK
Structure (SMILES),residual kinase activity ([1]; 0.3 µM),residual kinase activity ([2]; 0.3 µM),residual kinase activity ([3]; 0.3 µM),residual kinase activity ([4]; 0.3 µM),residual kinase activity ([5]; 0.3 µM),residual kinase activity ([6]; 0.3 µM),residual kinase activity ([7]; 0.3 µM),residual kinase activity ([8]; 0.3 µM),residual kinase activity ([9]; 0.3 µM),residual kinase activity ([10]; 0.3 µM),residual kinase activity ([11]; 0.3 µM),residual kinase activity ([12]; 0.3 µM),residual kinase activity ([13]; 0.3 µM),also measured
COc1ccnc2[nH]cc(-c3cc(N)nc(N)c3)c12 [meriolin 16],5 % of control,17 % of control,4 % of control,58 % of control,85 % of control,99 % of control,4 % of control,4 % of control,90 % of control,7 % of control,84 % of control,91 % of control,74 % of control,residual kinase activity ([1]; 0.03 µM): 31 % of control; residual kinase activity ([2]; 0.03 µM): 36 % of control; residual kinase activity ([3]; 0.03 µM): 6 % of control; residual kinase activity ([4]; 0.03 µM): 63 % of control; residual kinase activity ([5]; 0.03 µM): 94 % of control; residual kinase activity ([6]; 0.03 µM): 103 % of control; residual kinase activity ([7]; 0.03 µM): 36 % of control; residual kinase activity ([8]; 0.03 µM): 22 % of control; residual kinase activity ([9]; 0.03 µM): 97 % of control; residual kinase activity ([10]; 0.03 µM): 48 % of control; residual kinase activity ([11]; 0.03 µM): 99 % of control; residual kinase activity ([12]; 0.03 µM): 96 % of control; residual kinase activity ([13]; 0.03 µM): 94 % of control
c1ccc(CNc2cc(-c3c[nH]c4ncccc34)ccn2)cc1 [meriolin 36],12 % of control,19 % of control,5 % of control,66 % of control,52 % of control,54 % of control,22 % of control,3 % of control,89 % of control,14 % of control,82 % of control,93 % of control,78 % of control,residual kinase activity ([1]; 3 µM): -10 % of control; residual kinase activity ([2]; 3 µM): 10 % of control; residual kinase activity ([3]; 3 µM): 2 % of control; residual kinase activity ([4]; 3 µM): 22 % of control; residual kinase activity ([5]; 3 µM): 9 % of control; residual kinase activity ([6]; 3 µM): 16 % of control; residual kinase activity ([7]; 3 µM): 3 % of control; residual kinase activity ([8]; 3 µM): 0 % of control; residual kinase activity ([9]; 3 µM): 68 % of control; residual kinase activity ([10]; 3 µM): 2 % of control; residual kinase activity ([11]; 3 µM): 37 % of control; residual kinase activity ([12]; 3 µM): 56 % of control; residual kinase activity ([13]; 3 µM): 80 % of control
